One assay has as its system parental HEK-293 cells. Nature of the assay: FLIPR calcium assay in control cells (non-transfected HEK-293, other receptors or Gαqi5 alone). The class given is cell-based. The following applies: cells transfected with other receptors or Gαqi5 alone. Here is the method: A functional assay was performed with FLIPR using the fluorescent calcium indicator dye Fluo-3 (Molecular Probes) on a 96 well platform. HEK-293 cells, either expressing the receptor with the chimeric G protein (Gαqi5) or wild type cells were loaded with Fluo-3 as follows. Stable HEK-293 clones expressing RP-23 receptor with Gαqi5and/or cells expressing RP-23R alone, or parental cells were plated at a density of 70,000 cells/well in a 96 well plate. On the day of the experiment, the RP-23 receptor expressing cells were loaded with fluorescent solution (Dulbecco's modified medium with 10% fetal bovine serum containing 4 μM Fluo-3 and […] pluronic acid). The cells were incubated at 37° C. for one hour in a humidified chamber. Following the incubation, cells were Washed five times in Hanks' with 20 mM Hepes and 0.1% BSA (pH 7.4). The cells were analyzed using the FLIPR system to measure the mobilization of intracellular calcium in response to different compounds.
HEK-293 cells that endogenously express some GPCRs such as PACAP receptors can be used as an internal control for assays. Background signal was established with all of the compounds in the parental HEK-293 cells (non-transfected) or parental HEK-293 cells transfected with Gαqi5 chimeric protein using the FLIPR assay. […]

The next assay addresses T1, RP-23 receptor (Mus musculus, UniProt P30731).
T1 construct: expressed in transfected cells; G418 and hygromycin selection
Nature of the assay: FLIPR functional assay of intracellular calcium mobilization (Fluo-3) in HEK-293 cells expressing RP-23 receptor with Gαqi5. Type of assay: cell-based. As for the experimental part:
The RP-23 gene (Harrigan et al., Molecular Endocrinol. 5:1331-1338 (1991)) was obtained and used to generate a mammalian expression vector. Specifically, 40 μg of RP-23 receptor DNA was digested with 100 units of EcoRI enzyme (Pharmacia) (Lambda ZAP II) at 37 degrees C., isolated on a 1% agarose gel and subcloned into the Eco RI site of pcDNA 3.0 (InVitrogen, San Diego, Calif.). The expression vector so produced was called pcDNA 3.0-RP-23. Plasmid DNA was prepared using the Qiaprep system from Qiagen.
HEK-293 cells were transfected with pcDNA 3.0-RP-23 using the calcium-phosphate method and subsequently transfected with DNA encoding a chimeric G protein (Gαqi5). This is Gq alpha with the C-terminal amino acids changed from EYNLV to DCGLF. The entire protein was subcloned in an expression vector (pCEP, Molecular Devices). […] The presence of mRNA specific for clone RP-23 was assessed by Northern Blot Analysis and by the reverse transcriptase polymerase chain reaction (RT-PCR). […]
A functional assay was performed with FLIPR using the fluorescent calcium indicator dye Fluo-3 (Molecular Probes) on a 96 well platform. […] The cells were analyzed using the FLIPR system to measure the mobilization of intracellular calcium in response to different compounds.

T1 sequence (P30731 18-423): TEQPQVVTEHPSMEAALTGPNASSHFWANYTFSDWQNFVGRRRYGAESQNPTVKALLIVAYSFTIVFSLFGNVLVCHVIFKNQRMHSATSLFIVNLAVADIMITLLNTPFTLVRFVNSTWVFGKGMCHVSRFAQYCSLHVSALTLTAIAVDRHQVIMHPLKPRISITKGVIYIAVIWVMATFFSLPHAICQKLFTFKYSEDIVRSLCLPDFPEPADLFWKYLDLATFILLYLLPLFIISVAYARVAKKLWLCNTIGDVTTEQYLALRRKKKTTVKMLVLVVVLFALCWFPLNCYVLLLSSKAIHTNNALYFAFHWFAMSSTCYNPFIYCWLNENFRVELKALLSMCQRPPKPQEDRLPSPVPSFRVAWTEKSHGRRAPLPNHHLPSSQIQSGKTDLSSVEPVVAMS

As to `CCCCCCCCCCCCC/C=C/[C@@H](O)[C@@H](N)COP(=O)(O)O` [sphingosine-1-PO4], the “dose-response relationship of calcium response in control cells” value in the assay on parental HEK-293 cells is recorded as “not in non-transfected cells or in cells transfected with other receptors or Gαqi5 alone”. The “calcium response (FLIPR signal) compared to control cells” value at RP-23 receptor (HEK-293 cells expressing RP-23 receptor and Gαqi5 chimeric protein, compounds dissolved at 3 μM, compared with parental HEK-293 and HEK-293 transfected with Gαqi5) is “consistently elicited a significant signal”. Also, the “dose-response relationship of calcium response” value on RP-23 receptor (cells transfected with RP-23 and Gαqi5) is “dose-response relationship”.

For the origin of these results see patent US20030129664A1, “Novel Assays” (priority 1999, published 2003).
